The target in data set [1] is T1, human D4 dopamine receptor (Homo sapiens, UniProt P21917).
T1 construct: expressed in transfected cells
T1 sequence (P21917 1-419): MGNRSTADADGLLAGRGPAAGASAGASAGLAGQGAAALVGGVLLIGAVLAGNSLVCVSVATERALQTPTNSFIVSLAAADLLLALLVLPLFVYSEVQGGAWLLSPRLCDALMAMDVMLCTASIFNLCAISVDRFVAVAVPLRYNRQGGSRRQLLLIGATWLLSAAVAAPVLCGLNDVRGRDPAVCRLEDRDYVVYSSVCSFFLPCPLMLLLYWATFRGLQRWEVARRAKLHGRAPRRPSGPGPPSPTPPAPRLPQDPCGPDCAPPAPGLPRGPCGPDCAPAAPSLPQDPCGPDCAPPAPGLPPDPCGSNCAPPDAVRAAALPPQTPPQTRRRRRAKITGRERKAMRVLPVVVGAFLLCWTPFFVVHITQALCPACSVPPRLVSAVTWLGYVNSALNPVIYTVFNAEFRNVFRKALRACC
Put plainly: inhibition of [^3 H]spiperone binding to the human D4 dopamine receptor. The method, then: (§1) Compounds of Formula I were tested for their ability to bind to dopamine receptors as measured by their inhibition of [^3 H]spiperone binding to the human D2 and D3 receptors in an assay described by MacKenzie R. G., VanLeeuwen D., Pugsley T. A., et al., "Characterization of the human dopamine D3 receptor expressed in transfected cell lines." Eur. J. Pharmacol.-Mol. Pharmacol., 1994;266:79-85; for the human D4 dopamine receptor in an assay described by Pugsley T. A., David M. D., Akunne H. C., et al., "CI-1007, a dopamine partial agonist and potential antipsychotic agent. I. Neurochemical Effects." J. Pharmacol. Exp. Ther., 1995;274:898-911; and for ability to block the action of an agonist in a [^3 H]thymidine incorporation assay described by Lajiness N. E., Chio C. L., Huff R. M., "D2 dopamine receptor stimulation of mitogenesis in transfected Chinese hamster ovary cells: relationship to dopamine stimulation of tyrosine phosphorylations." J. Pharmacol. Exp. Ther., 1993;267:1573-81. This test determines the agonist/antagonist character of a compound by measuring [^3 H]thymidine uptake in Chinese hamster ovary (CHO) pro-5 cells expressing the dopamine D4 receptor. Agonists, such as quinpirole, promote cell growth and subsequent [^3 H]thymidine incorporation, while antagonists block the action of agonists. […] The above articles are incorporated herein by reference for their assay methodology.

Another data set deals with T2, human D3 receptor (Homo sapiens, UniProt P35462).
T2 construct: expressed in transfected cells
T2 sequence (P35462 whole entry): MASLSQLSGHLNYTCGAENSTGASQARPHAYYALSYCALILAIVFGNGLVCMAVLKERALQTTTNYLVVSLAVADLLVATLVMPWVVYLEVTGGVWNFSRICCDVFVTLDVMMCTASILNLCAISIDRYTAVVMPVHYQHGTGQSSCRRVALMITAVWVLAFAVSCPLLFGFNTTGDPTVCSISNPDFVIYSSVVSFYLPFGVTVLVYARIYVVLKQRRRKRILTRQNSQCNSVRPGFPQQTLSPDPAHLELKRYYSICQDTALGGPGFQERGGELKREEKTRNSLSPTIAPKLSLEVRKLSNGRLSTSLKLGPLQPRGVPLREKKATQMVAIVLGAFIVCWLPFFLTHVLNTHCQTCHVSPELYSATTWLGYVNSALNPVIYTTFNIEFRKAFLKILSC
The experiment in a line: inhibition of [^3 H]spiperone binding to the human D3 receptor. The note with it: read-out: Dopamine Receptor Binding (Ki, nM) D3. The method, then: as §1

The next data set concerns the target T3, human D2 receptor (Homo sapiens, UniProt P14416).
T3 construct: expressed in transfected cells
The experiment in a line: inhibition of [^3 H]spiperone binding to the human D2 receptor. The note with it: read-out: Dopamine Receptor Binding (Ki, nM) D2. The procedure: as §1

A further data set deals with dopamine D4 receptor. The note with it: D4 vs D2; cited from earlier work.
A further data set concerns schizophrenia. Conditions: in vivo; cited from earlier work.

Where a name gives a salt, the structure may show the parent alone.

T3 sequence (P14416 whole entry): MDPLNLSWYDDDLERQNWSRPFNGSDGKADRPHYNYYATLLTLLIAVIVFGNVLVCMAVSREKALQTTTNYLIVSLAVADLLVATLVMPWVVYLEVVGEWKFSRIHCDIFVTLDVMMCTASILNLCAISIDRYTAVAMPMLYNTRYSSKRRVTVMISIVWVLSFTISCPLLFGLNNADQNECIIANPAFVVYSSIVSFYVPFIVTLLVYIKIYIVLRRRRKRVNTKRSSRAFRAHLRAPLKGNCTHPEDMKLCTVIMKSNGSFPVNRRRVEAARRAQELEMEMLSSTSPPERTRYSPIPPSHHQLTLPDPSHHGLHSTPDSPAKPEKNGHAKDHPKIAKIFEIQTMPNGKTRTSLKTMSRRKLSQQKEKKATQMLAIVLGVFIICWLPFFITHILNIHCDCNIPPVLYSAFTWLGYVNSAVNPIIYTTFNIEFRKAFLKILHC

For orientation: Ki means a dissociation constant, usually derived from enzyme kinetics or from competition with a known ligand. With `COc1ccc2c3c(c(=O)oc2c1)CN(Cc1ccccc1)CC3` [Example 1, 3-Benzyl-8-methoxy-1,2,3,4-tetrahydro-chromeno[3,4-c]-pyridin-5-one], the results for the Ki (in data set [1]; on human D3 receptor) were 1.5 nM and 60 nM, respectively.
In the same order, the values of `COc1ccc2c3c(c(=O)oc2c1)CN(Cc1ccc(C)cc1)CC3` [Example 3, 8-Methoxy-3-(4-methyl-benzyl)-1,2,3,4-tetrahydro-chromeno[3,4-c]pyridin-5-one] are 2.6 nM and 491 nM.
In turn, `COc1ccc2c3c(c(=O)oc2c1)CN(Cc1ccc(Cl)c(Cl)c1)CC3` [Example 4, 3-(3,4-Dichloro-benzyl)-8-methoxy-1,2,3,4-tetrahydro-chromeno[3,4-c]pyridin-5-one] registered a Ki in data set [1] of 60.9 nM.
Regarding `COc1ccc2c3c(c(=O)oc2c1)CN(Cc1ccc([N+](=O)[O-])cc1)CC3` [Example 5, 8-Methoxy-3-(4-nitro-benzyl)-1,2,3,4-tetrahydro-chromeno[3,4-c]pyridin-5-one], the Ki is 7.53 nM in data set [1] and more than 5880 nM at human D2 receptor.
The compound `COc1cc2oc(=O)c3c(c2cc1OC)CCN(Cc1ccccc1)C3` [Example 6, 3-Benzyl-8,9-dimethoxy-1,2,3,4-tetrahydro-chromeno[3,4-c]pyridin-5-one] gave a Ki in data set [1] of 59 nM.
In the case of `Cc1cc2oc(=O)c3c(c2cc1O)CCN(Cc1ccccc1)C3` [Example 7, 3-Benzyl-9-hydroxy-8-methyl-1,2,3,4-tetrahydro-chromeno[3,4-c]pyridin-5-onehydrochloride], the Ki in data set [1] is 8.01 nM; on human D2 receptor it was 1900 nM; on human D3 receptor it was 295 nM.
In the case of `Cc1c(O)cc2oc(=O)c3c(c2c1O)CCN(Cc1ccccc1)C3` [Example 8, 3-Benzyl-8,10-dihydroxy-9-methyl-1,2,3,4-tetrahydro-chromeno[3,4-c]pyridin-5-one hydrochloride], the Ki in data set [1] is 44.3 nM.
In the case of `COc1ccc2c3c(c(=O)oc2c1)CN(Cc1ccc(Cl)cc1)CC3` [Example 9, 3-(4-Chloro-benzyl)-8-methoxy-1,2,3,4-tetrahydro-chromeno[3,4-c]pyridin-5-one], the inhibition constant Ki in data set [1] was 7.3 nM; at human D2 receptor, more than 5880 nM; at human D3 receptor, 11700 nM.
Compound `COc1ccc2c3c(c(=O)oc2c1)CN(Cc1ccncc1)CC3` [Example 10, 8-Methoxy-3-pyridin-4-ylmethyl-1,2,3,4-tetrahydro-chromeno[3,4-c]pyridin-5-one] gave a Ki in data set [1] of 73.5 nM.
Same read-out and setting: the figure for `COc1ccc2c3c(c(=O)oc2c1)CN(Cc1ccnc2ccccc12)CC3` [Example 11, 8-Methoxy-3-quinolin-4-ylmethyl-1,2,3,4-tetrahydro-chromeno[3,4-c]pyridin-5-one] is 34.3 nM.
Regarding `COc1ccc2c3c(c(=O)oc2c1)CN(Cc1cc(OC)c(OC)c(OC)c1)CC3` [Example 12, 8-Methoxy-3-(3,4,5-trimethoxy-benzyl)-1,2,3,4-tetrahydro-chromeno[3,4-c]pyridin-5-one], the Ki turned out to be 21.3 nM in data set [1], 2670 nM on human D2 receptor and 3670 nM at human D3 receptor.
`COc1ccc2c3c(c(=O)oc2c1)CN(Cc1ccc(C(F)(F)F)cc1)CC3` [Example 13, 8-Methoxy-3-(4-trifluoromethyl-benzyl)-1,2,3,4-tetrahydro-chromeno[3,4-c]pyridin-5-one]: the results for the Ki (in data set [1]; at human D3 receptor) were 8.18 nM and 966 nM, respectively.
Turning to `COc1ccc(CN2CCc3c(c(=O)oc4cc(OC)ccc34)C2)cc1` [Example 14, 8-Methoxy-3-(4-methoxy-benzyl)-1,2,3,4-tetrahydro-chromeno[3,4-c]pyridin-5-one], the Ki in data set [1] turned out to be 84.3 nM.
Turning to `COc1ccc2c3c(c(=O)oc2c1)CN(Cc1cccc(Cl)c1)CC3` [Example 15, 3-(3-Chloro-benzyl)-8-methoxy-1,2,3,4-tetrahydro-chromeno[3,4-c]pyridin-5-one], the values for the Ki (in data set [1]; on human D3 receptor) were 17.2 nM and 2630 nM, respectively.
As to `COc1ccc2c3c(c(=O)oc2c1)CN(Cc1ccccc1Cl)CC3` [Example 16, 3-(2-Chloro-benzyl)-8-methoxy-1,2,3,4-tetrahydro-chromeno[3,4-c]pyridin-5-one], the Ki is 33.9 nM in data set [1], more than 5880 nM at human D2 receptor and 2610 nM at human D3 receptor.
For the compound `Cc1ccc2c3c(c(=O)oc2c1)CN(Cc1ccccc1)CC3` [Example 17, 3-Benzyl-8-methyl-1,2,3,4-tetrahydro-chromeno[3,4-c]pyridin-5-one], the inhibition constant (Ki) in data set [1] was 3.59 nM; on human D3 receptor, 338 nM.
As for `COc1ccc2c3c(c(=O)oc2c1)CN(Cc1cccnc1)CC3` [Example 18, 8-Methoxy-3-pyridin-3-ylmethyl-1,2,3,4-tetrahydro-chromeno[3,4-c]pyridin-5-one], the Ki in data set [1] came to 21.3 nM; at human D2 receptor, 3980 nM.
`COc1ccc2c3c(c(=O)oc2c1)CN(Cc1ccccn1)CC3` [Example 19, 8-Methoxy-3-pyridin-2-ylmethyl-1,2,3,4-tetrahydro-chromeno[3,4-c]pyridin-5-one]: in data set [1], affinity was put at a Ki of 48 nM.
The same measure, in the same setting: to `Cc1ccc2c3c(c(=O)oc2c1)CN(Cc1ccc(Cl)cc1)CC3` [Example 20, 3-(4-Chloro-benzyl)-8-methyl-1,2,3,4-tetrahydro-chromeno[3,4-c]pyridin-5-one] belongs 10.6 nM.
For `COc1cc2oc(=O)c3c(c2cc1OC)CCN(Cc1ccc(Cl)cc1)C3` [Example 21, 3-(4-Chloro-benzyl)-8,9-dimethoxy-1,2,3,4-tetrahydro-chromeno[3,4-c]pyridin-5-one], the values for the Ki (in data set [1]; on human D2 receptor) were 8.46 nM and more than 5880 nM, respectively.
As to `COc1ccc2c3c(c(=O)oc2c1)CN(CCc1ccccc1)CC3` [Example 22, 8-Methoxy-3-phenethyl-1,2,3,4-tetrahydro-chromeno[3,4-c]pyridin-5-one], the figures for the inhibition constant (Ki) (in data set [1]; at human D2 receptor; at human D3 receptor) were 6.87 nM, more than 5880 nM and 591 nM, respectively.
In turn, `COc1cc2oc(=O)c3c(c2cc1OC)CCN(CCc1ccccc1)C3` [Example 23, 8,9-Dimethoxy-3-phenethyl-1,2,3,4-tetrahydro-chromeno[3,4-c]pyridin-5-one hydrochloride] came in with an inhibition constant (Ki) in data set [1] of 32.6 nM.
The same measure, in the same setting: to `COc1ccc2c3c(c(=O)oc2c1OC)CN(Cc1ccccc1)CC3` [Example 24, 3-Benzyl-7,8-dimethoxy-1,2,3,4-tetrahydro-chromeno[3,4-c]pyridin-5-one] belongs 16.2 nM.
As for `CN1CCN(C2=Nc3cc(Cl)ccc3Nc3ccccc32)CC1` [clozapine], the “higher affinity for the dopamine D4 receptor than for the D2 receptor” value in the data set with dopamine D4 receptor is on record as 10 fold. In the data set with schizophrenia, the “improvement of positive and negative symptoms of schizophrenia” value was “improves both the positive and negative symptoms of schizophrenia”; the “incidence of extrapyramidal side effects” value was “low incidence of extrapyramidal side effects”.

The values are drawn from patent publication US5760050A, “Antipsychotic method utilizing certain tetrahydrochromeno[3,4-c]pyridin-5-ones” (Warner-Lambert Company, priority 1997, dated 1998).
